Measured values as given in ChEMBL document CHEMBL2086254, “Synthesis and identification of novel indolo[2,3-a]pyrimido[5,4-c]carbazoles as a new class of anti-cancer agents” (Eur J Med Chem, 2012).

Columns and labels:
Format in all cases: functional
SF-295 = experiment: Cytotoxicity against human SF295 cells after 48 hrs by SRB assay; details: SF-295, 48 h
OVCAR-8 = experiment: Cytotoxicity against human OVCAR8 cells after 48 hrs by SRB assay; details: OVCAR-8, 48 h
OVCAR-5 = experiment: Cytotoxicity against human OVCAR5 cells after 48 hrs by SRB assay; details: OVCAR-5, 48 h
HCT-15 = experiment: Cytotoxicity against human HCT15 cells after 48 hrs by SRB assay; details: HCT-15, 48 h
[1] = Cytotoxicity against human Hs 578T cells after 48 hrs by SRB assay
MDA-MB-435 = experiment: Cytotoxicity against human MDA-MB-435 cells after 48 hrs by SRB assay; details: MDA-MB-435, 48 h
RPMI-8226 = experiment: Cytotoxicity against human RPMI8226 cells after 48 hrs by SRB assay; details: RPMI-8226, 48 h
UO-31 = experiment: Cytotoxicity against human UO31 cells after 48 hrs by SRB assay; details: UO-31, 48 h
SK-MEL-2 = experiment: Cytotoxicity against human SK-MEL-2 cells after 48 hrs by SRB assay; details: SK-MEL-2, 48 h
IGROV-1 = experiment: Cytotoxicity against human IGROV1 cells after 48 hrs by SRB assay; details: IGROV-1, 48 h
TK-10 = experiment: Cytotoxicity against human TK10 cells after 48 hrs by SRB assay; details: TK-10, 48 h
HL-60 = experiment: Cytotoxicity against human HL60 cells after 48 hrs by SRB assay; details: HL-60, 48 h
NCI-H23 = experiment: Cytotoxicity against human NCI-H23 cells after 48 hrs by SRB assay; details: NCI-H23, 48 h
ACHN = experiment: Cytotoxicity against human ACHN cells after 48 hrs by SRB assay
SN12C = experiment: Cytotoxicity against human SN12C cells after 48 hrs by SRB assay
MDA-MB-468 = experiment: Cytotoxicity against human MDA-MB-468 cells after 48 hrs by SRB assay; details: MDA-MB-468, 48 h
T47D = experiment: Cytotoxicity against human T47D cells after 48 hrs by SRB assay
RXF 393 = experiment: Cytotoxicity against human RXF393 cells after 48 hrs by SRB assay; details: RXF 393, 48 h
U-251 = experiment: Cytotoxicity in human U251 cells after 48 hrs by SRB assay; details: U-251, 48 h
NCI-H322M = experiment: Cytotoxicity against human NCI-H322M cells after 48 hrs by SRB assay
NCI-H460 = experiment: Cytotoxicity against human NCI-H460 cells after 48 hrs by SRB assay; details: NCI-H460, 48 h
UACC-257 = experiment: Cytotoxicity against human UACC257 cells after 48 hrs by SRB assay; details: UACC-257, 48 h
NCI/ADR-RES = experiment: Cytotoxicity against human NCI/ADR-RES cells after 48 hrs by SRB assay
HCC 2998 = experiment: Cytotoxicity against human HCC2998 cells after 48 hrs by SRB assay; details: HCC 2998, 48 h
CCRF-CEM = experiment: Cytotoxicity in human CCRF-CEM cells after 48 hrs by SRB assay
Malme-3M = experiment: Cytotoxicity against human MALME-3M cells after 48 hrs by SRB assay
SNB-19 = experiment: Cytotoxicity against human SNB19 cells after 48 hrs by SRB assay; details: SNB-19, 48 h
COLO 205 = experiment: Cytotoxicity against human COLO205 cells after 48 hrs by SRB assay; details: COLO 205, 48 h
KM12 = experiment: Cytotoxicity against human KM12 cells after 48 hrs by SRB assay; details: KM12, 48 h
EKVX = experiment: Cytotoxicity against human EKVX cells after 48 hrs by SRB assay
HCT-116 = experiment: Cytotoxicity against human HCT116 cells after 48 hrs by SRB assay; details: HCT-116, 48 h
SF-268 = experiment: Cytotoxicity against human SF268 cells after 48 hrs by SRB assay; details: SF-268, 48 h
MCF7 = experiment: Cytotoxicity against human MCF7 cells after 48 hrs by SRB assay; details: MCF7, 48 h
HOP-92 = experiment: Cytotoxicity against human HOP92 cells assessed as cell growth at 10 uM after 48 hrs by SRB assay relative to control; details: HOP-92, 48 h, read-out: Activity
[2] = read-out: LC50 (the source's name)

`Cn1c2ccccc2c2c3nc(N)[nH]c(=O)c3c3c4ccccc4n(C)c3c21` gave a GI50 (SF-295) of 3.68 µM, a TGI (SF-295) of 12.9 µM and a CC50 (SF-295; [2]) of 76.7 µM. For the same compound, the GI50 (OVCAR-8) was 3.82 µM, the TGI (OVCAR-8) was over 100 µM and the CC50 (OVCAR-8; [2]) was over 100 µM. The GI50 (OVCAR-5) was 52.3 µM, the TGI (OVCAR-5) was over 100 µM and the CC50 (OVCAR-5; [2]) was over 100 µM. For the same compound, the GI50 (HCT-15) was 1.98 µM, the TGI (HCT-15) was over 100 µM and the CC50 (HCT-15; [2]) was over 100 µM. For the same compound, the GI50 [1] was 10.2 µM, the TGI [1] was over 100 µM and the CC50 [1, 2] was over 100 µM. For the same compound, the GI50 (MDA-MB-435) was 3.39 µM, the TGI (MDA-MB-435) was 22.3 µM and the CC50 (MDA-MB-435; [2]) was over 100 µM. For the same compound, the GI50 (RPMI-8226) was 11.1 µM, the TGI (RPMI-8226) was 65.6 µM and the CC50 (RPMI-8226; [2]) was over 100 µM. It also gave a GI50 (UO-31) of 1.37 µM, a TGI (UO-31) of over 100 µM and a CC50 (UO-31; [2]) of over 100 µM. The GI50 (SK-MEL-2) was 1.9 µM, the TGI (SK-MEL-2) was 7.59 µM and the CC50 (SK-MEL-2; [2]) was 76.5 µM. For the same compound, the GI50 (IGROV-1) was 31.3 µM, the TGI (IGROV-1) was over 100 µM and the CC50 (IGROV-1; [2]) was over 100 µM. The GI50 (TK-10) was 7.14 µM, the TGI (TK-10) was over 100 µM and the CC50 (TK-10; [2]) was over 100 µM. It also gave a GI50 (HL-60) of 4.19 µM, a TGI (HL-60) of 38 µM and a CC50 (HL-60; [2]) of over 100 µM. It also gave a GI50 (NCI-H23) of 3.51 µM, a TGI (NCI-H23) of over 100 µM and a CC50 (NCI-H23; [2]) of over 100 µM. It also gave a GI50 (ACHN) of 1.11 µM, a TGI (ACHN) of over 100 µM and a CC50 (ACHN; [2]) of over 100 µM. It also gave a GI50 (SN12C) of 6.49 µM, a TGI (SN12C) of over 100 µM and a CC50 (SN12C; [2]) of over 100 µM. The GI50 (MDA-MB-468) was 21.7 µM, the TGI (MDA-MB-468) was 75.1 µM and the CC50 (MDA-MB-468; [2]) was over 100 µM. It also gave a GI50 (T47D) of 5.1 µM, a TGI (T47D) of over 100 µM and a CC50 (T47D; [2]) of over 100 µM. For the same compound, the GI50 (RXF 393) was 7.47 µM, the TGI (RXF 393) was 37.6 µM and the CC50 (RXF 393; [2]) was over 100 µM. For the same compound, the GI50 (U-251) was 6.38 µM, the TGI (U-251) was over 100 µM and the CC50 (U-251; [2]) was over 100 µM. The GI50 (NCI-H322M) was 5.3 µM, the TGI (NCI-H322M) was over 100 µM and the CC50 (NCI-H322M; [2]) was over 100 µM. The GI50 (NCI-H460) was 3.06 µM, the TGI (NCI-H460) was over 100 µM and the CC50 (NCI-H460; [2]) was over 100 µM. The GI50 (UACC-257) was 12.8 µM, the TGI (UACC-257) was 32 µM and the CC50 (UACC-257; [2]) was 79.7 µM. The GI50 (NCI/ADR-RES) was 3.87 µM, the TGI (NCI/ADR-RES) was over 100 µM and the CC50 (NCI/ADR-RES; [2]) was over 100 µM. For the same compound, the GI50 (HCC 2998) was 6.08 µM, the TGI (HCC 2998) was over 100 µM and the CC50 (HCC 2998; [2]) was over 100 µM. The GI50 (CCRF-CEM) was 3.41 µM, the TGI (CCRF-CEM) was over 100 µM and the CC50 (CCRF-CEM; [2]) was over 100 µM. The GI50 (Malme-3M) was 14.5 µM, the TGI (Malme-3M) was 74.8 µM and the CC50 (Malme-3M; [2]) was over 100 µM. The GI50 (SNB-19) was over 100 µM, the TGI (SNB-19) was over 100 µM and the CC50 (SNB-19; [2]) was over 100 µM. For the same compound, the GI50 (COLO 205) was 7.99 µM, the TGI (COLO 205) was 39.4 µM and the CC50 (COLO 205; [2]) was over 100 µM. For the same compound, the GI50 (KM12) was 3.24 µM, the TGI (KM12) was 32.3 µM and the CC50 (KM12; [2]) was over 100 µM. It also gave a GI50 (EKVX) of 12.7 µM, a TGI (EKVX) of over 100 µM and a CC50 (EKVX; [2]) of over 100 µM. For the same compound, the GI50 (HCT-116) was 3.2 µM, the TGI (HCT-116) was 35.3 µM and the CC50 (HCT-116; [2]) was over 100 µM. For the same compound, the GI50 (SF-268) was 15.8 µM, the TGI (SF-268) was over 100 µM and the CC50 (SF-268; [2]) was over 100 µM. It also gave a GI50 (MCF7) of 2.13 µM, a TGI (MCF7) of 44.1 µM and a CC50 (MCF7; [2]) of over 100 µM.

In the case of `Cn1cc(-c2[nH]c(=S)[nH]c(=O)c2-c2cn(C)c3ccccc23)c2ccccc21`, the growth at 10 µM (HOP-92) is reported as 69.8%.
